5 molecules from US12084441B2, “Salts of a compound and the crystalline forms thereof” (priority 2017, dated 2024) can be followed below.

The nature of series [1]: Stability experiment of salt of Formula A (high temperature, high humidity, illumination; HPLC purity and X-ray powder diffraction). Format: physicochemical. To be noted: for Purity (%): HPLC; for Stability (chemical purity and crystalline form): high temperature, illumination or high humidity for 10 days. As for the experimental part: Determination method: the test samples of Form A-I, Form B-I, Form C-I, and Form C-Ill of salt of Formula A were placed on the culture dishes respectively, which were uncovered and placed in sealed clean containers. The containers were placed under a temperature of 60° C. for 10 days, under an illumination of 4500 lx±500 lx for 10 days, and under a temperature of 25° C. and a relative humidity of 92.5%±5% for 10 days respectively. Then sampled on the 5th day and the 10th day respectively. Investigated for the purity (using HPLC analysis) and crystalline form (using X-ray powder diffraction analysis) of the samples, and compared the investigation results. The experimental results of the salts and the crystalline forms thereof were shown in Table 1, Table 2, Table 3, and Table 4.9

The nature of series [2]: Rough solubility test of salt of Formula A in water. The conditions noted are these: Purified Water, 19° C.; for solubility at 5 min: thermodynamic from solid. Format: physicochemical. As for the experimental part:
After each addition of water, the test tube was shaken for 5 minutes until the solid was dissolved completely. Then the rough solubility of the compound was calculated according to the weight of the compound weighed and the total amount of water added.

A short description of the next series: physchem. To be noted: water, thermodynamic from solid, Solubility (mg/mL).
A short description of series [3]: Solubility test of salt of Formula A (acetate, Form A-I) and its free base in different solvents. To be noted: thermodynamic from solid.
Text: (§1) Then the excess solids were filtered out, and the clear filtrates were used to determine solubility.
Where [4] appears, read: 0 day, crystalline form by X-ray powder diffraction.
Where [5] appears, read: High humidity (92.5% RH, 25° C.), 5 days.
Setting [6] is: High humidity (92.5% RH, 25° C.), 5 days, X-ray powder diffraction.
[7] abbreviates: High humidity (92.5% RH, 25° C.), 10 days.
Where [8] appears, read: High humidity (92.5% RH, 25° C.), 10 days, X-ray powder diffraction.
The mark [9] stands for this setting: High temperature (60° C.), 5 days.
[10] abbreviates: High temperature (60° C.), 5 days, X-ray powder diffraction.
The mark [11] stands for this setting: High temperature (60° C.), 10 days.
The mark [12] stands for this setting: High temperature (60° C.), 10 days, X-ray powder diffraction.
Where [13] appears, read: Illumination (4500 Lx), 5 days, X-ray powder diffraction.
[14] abbreviates: Illumination (4500 Lx), 10 days.
[15] abbreviates: Illumination (4500 Lx), 10 days, X-ray powder diffraction.
[16] abbreviates: High humidity (92.5% RH, 25° C.), 5 days, monomalate.
Setting [17] is: High humidity (92.5% RH, 25° C.), 10 days, monomalate.
Setting [18] is: High temperature (60° C.), 5 days, monomalate.
The mark [19] stands for this setting: High temperature (60° C.), 10 days, monomalate.
Where [20] appears, read: Illumination (4500 Lx), 5 days, monomalate.
The mark [21] stands for this setting: Illumination (4500 Lx), 10 days, monomalate.
Setting [22] is: High humidity (92.5% RH, 25° C.), 5 days, malate.
Where [23] appears, read: High humidity (92.5% RH, 25° C.), 10 days, malate.
The mark [24] stands for this setting: High temperature (60° C.), 5 days, malate.
The mark [25] stands for this setting: High temperature (60° C.), 10 days, malate.
[26] abbreviates: Illumination (4500 Lx), 5 days, malate.
[27] abbreviates: Illumination (4500 Lx), 10 days, malate.

As a reminder, the solubility is the concentration that dissolves in the medium under given conditions.

Text for physchem: as §1

Turning to `CC(=O)O.CS(=O)(=O)N1CCC(c2ccc(-c3cc4nccnc4c(NC[C@@H]4CNCCO4)n3)cc2)CC1` [Form A-I, (S)-7-(4-(1-(methylsulfonyl)piperidin-4-yl)phenyl)-N-(morpholin-2-ylmethyl)pyrido[3,4-b]pyrazin-5-amine monoacetate], the “Chiral Purity (%)” value was found to be 99.63% in series [1] (0 day); 99.69% in series [1] (setting [5]); 99.71% in series [1] (setting [7]); 99.66% in series [1] (setting [9]); 99.71% in series [1] (setting [11]); 99.69% in series [1] (Illumination (4500 Lx), 5 days). Also, the “Chiral Purity (%)” value in series [1] (setting [14]) was found to be 99.71%. Also, the “Purity (%)” value in series [1] (0 day) turned out to be 99.39%; in series [1] (setting [5]), 99.35%; in series [1] (setting [7]), 99.53%; in series [1] (setting [9]), 99.31%; in series [1] (setting [11]), 99.37%; in series [1] (Illumination (4500 Lx), 5 days), 99.30%. Also, in series [1] (setting [14]), the “Purity (%)” value came to 98.99%. For the same molecule, the Form entry in series [1] (setting [4]), in series [1] (setting [6]), in series [1] (setting [8]), in series [1] (setting [10]), in series [1] (setting [12]) and in series [1] (setting [13]) was “A-I” each time. Further, the Form result in series [1] (setting [15]) is “A-I”. Also, in series [1], the “Stability (chemical purity and crystalline form)” value is “stable”. For the same molecule, in series [2], the solubility at 5 min was 14600 µg/mL. The solubility at 4 h in “physchem” (37 °C) came to 26200 µg/mL; in “physchem”, 21800 µg/mL.

As to `CS(=O)(=O)N1CCC(c2ccc(-c3cc4nccnc4c(NC[C@@H]4CNCCO4)n3)cc2)CC1.Cc1ccc(S(=O)(=O)O)cc1` [Form B-I, (S)-7-(4-(1-(methylsulfonyl)piperidin-4-yl)phenyl)-N-(morpholin-2-ylmethyl)pyrido[3,4-b]pyrazin-5-amine mono p-Tosylate], the “Chiral Purity (%)” value in series [1] (0 day) is 99.71%; in series [1] (setting [5]), 99.76%; in series [1] (setting [7]), 99.71%; in series [1] (setting [9]), 99.70%; in series [1] (setting [11]) it was 99.76%; in series [1] (Illumination (4500 Lx), 5 days), 99.76%. For the same molecule, the “Chiral Purity (%)” value in series [1] (setting [14]) was determined as 99.72%. The “Purity (%)” value stood at 99.49% in series [1] (0 day); 99.47% in series [1] (setting [5]); 99.63% in series [1] (setting [7]); 99.48% in series [1] (setting [9]); 99.51% in series [1] (setting [11]); 99.19% in series [1] (Illumination (4500 Lx), 5 days). Also, the “Purity (%)” value in series [1] (setting [14]) amounted to 99.05%. The Form entry in series [1] (setting [4]), in series [1] (setting [6]), in series [1] (setting [8]), in series [1] (setting [10]), in series [1] (setting [12]) and in series [1] (setting [13]) was “B-I” each time. The Form result in series [1] (setting [15]) is “B-I”. Also, in series [2], the “Rough solubility” value was determined as 650 µg/mL.

Regarding `CS(=O)(=O)N1CCC(c2ccc(-c3cc4nccnc4c(NC[C@@H]4CNCCO4)n3)cc2)CC1.O=C(O)CC(O)C(=O)O` [Form C-I, (S)-7-(4-(1-(methylsulfonyl)piperidin-4-yl)phenyl)-N-(morpholin-2-ylmethyl)pyrido[3,4-b]pyrazin-5-amine monomalate], the “Purity (%)” value turned out to be 99.71% in series [1] (0 day, monomalate); 99.72% in series [1] (setting [16]); 99.68% in series [1] (setting [17]); 99.61% in series [1] (setting [18]); 99.63% in series [1] (setting [19]); 99.67% in series [1] (setting [20]). Also, the “Purity (%)” value in series [1] (setting [21]) stood at 99.61%. The Form entry in series [1] (0 day, crystalline form by X-ray powder diffraction, monomalate) is “C-I”; in series [1] (High humidity (92.5% RH, 25° C.), 5 days, X-ray powder diffraction, monomalate) it was “C-I”; in series [1] (High humidity (92.5% RH, 25° C.), 10 days, X-ray powder diffraction, monomalate), “C-I”; in series [1] (High temperature (60° C.), 5 days, X-ray powder diffraction, monomalate), “C-I”; in series [1] (High temperature (60° C.), 10 days, X-ray powder diffraction, monomalate), “C-I”; in series [1] (Illumination (4500 Lx), 5 days, X-ray powder diffraction, monomalate), “C-I”. Besides, the Form entry in series [1] (Illumination (4500 Lx), 10 days, X-ray powder diffraction, monomalate) is “C-I”. Further, the “Chiral Purity (%)” value in series [1] (0 day, monomalate) was found to be 99.52%; in series [1] (setting [16]), 99.53%; in series [1] (setting [17]), 99.53%; in series [1] (setting [18]) it was 99.52%; in series [1] (setting [19]) it was 99.54%; in series [1] (setting [20]), 99.51%. The “Chiral Purity (%)” value in series [1] (setting [21]) came to 99.50%. Besides, in series [1], the “Stability (chemical purity and crystalline form)” value is listed as “stable”. Also, in series [2], the solubility at 5 min worked out at 480 µg/mL.

Regarding `CS(=O)(=O)N1CCC(c2ccc(-c3cc4nccnc4c(NC[C@@H]4CNCCO4)n3)cc2)CC1.O=C(O)CC(O)C(=O)O` [Form C-III, (S)-7-(4-(1-(methylsulfonyl)piperidin-4-yl)phenyl)-N-(morpholin-2-ylmethyl)pyrido[3,4-b]pyrazin-5-amine malate], the “Purity (%)” value is reported as 99.75% in series [1] (0 day, malate); 99.67% in series [1] (setting [22]); 99.69% in series [1] (setting [23]); 99.57% in series [1] (setting [24]); 99.70% in series [1] (setting [25]); 99.59% in series [1] (setting [26]). Moreover, the “Purity (%)” value in series [1] (setting [27]) worked out at 99.65%. Moreover, the Form result in series [1] (0 day, crystalline form by X-ray powder diffraction, malate) is “C-III”; in series [1] (High humidity (92.5% RH, 25° C.), 5 days, X-ray powder diffraction, malate), “C-III”; in series [1] (High humidity (92.5% RH, 25° C.), 10 days, X-ray powder diffraction, malate), “C-III”; in series [1] (High temperature (60° C.), 5 days, X-ray powder diffraction, malate) it was “C-III”; in series [1] (High temperature (60° C.), 10 days, X-ray powder diffraction, malate) it was “C-III”; in series [1] (Illumination (4500 Lx), 5 days, X-ray powder diffraction, malate) it was “C-III”. The Form result in series [1] (Illumination (4500 Lx), 10 days, X-ray powder diffraction, malate) is listed as “C-III”. For the same molecule, the “Chiral Purity (%)” value in series [1] (0 day, malate) is reported as 99.39%; in series [1] (setting [22]), 99.39%; in series [1] (setting [23]), 99.38%; in series [1] (setting [24]), 99.40%; in series [1] (setting [25]), 99.39%; in series [1] (setting [26]) it was 99.37%. For the same molecule, the “Chiral Purity (%)” value in series [1] (setting [27]) amounted to 99.40%.

`CS(=O)(=O)N1CCC(c2ccc(-c3cc4nccnc4c(NC[C@@H]4CNCCO4)n3)cc2)CC1` [Free base of Formula A, (S)-7-(4-(1-(methylsulfonyl)piperidin-4-yl)phenyl)-N-(morpholin-2-ylmethyl) pyrido[3,4-b]pyrazin-5-amine]: the solubility at 4 h amounted to 2120 µg/mL in series [3] (acetone, organic solvent or mixture); 640 µg/mL in series [3] (ethanol, organic solvent or mixture); 1580 µg/mL in series [3] (methanol, organic solvent or mixture); 2.5 µg/mL in series [3] (purified water, 37 °C, water); 2.4 µg/mL in series [3] (purified water, water); 10700 µg/mL in series [3] (tetrahydrofuran, organic solvent or mixture).
